According to patent publication US5089471A, “Peptidyl beta-aminoacyl aminodiol carbamates as anti-hypertensive agents” (G. D. Searle & Co., priority 1987, dated 1992):
Square brackets hold non-standard residues; d marks the D form. Peptide text beside a SMILES is read from it. * marks the point of attachment. Sta = CC(C)C[C@H](N)[C@@H](O)CC(=O)O; Isovaleryl = CC(C)CC(=O)*

Columns and labels:
human renin = target: T1, human renin (Homo sapiens, UniProt P00797); experiment: in vitro human renin inhibition test (angiotensin I determined by radioimmunoassay); format: biochemical; settings: for relative activity of epimers as human renin inhibitor (in words): epimer of Example 9 versus epimer of Example 10
T1 construct: purchased National Institute for Biological Standards, London
T1 sequence (P00797 67-406): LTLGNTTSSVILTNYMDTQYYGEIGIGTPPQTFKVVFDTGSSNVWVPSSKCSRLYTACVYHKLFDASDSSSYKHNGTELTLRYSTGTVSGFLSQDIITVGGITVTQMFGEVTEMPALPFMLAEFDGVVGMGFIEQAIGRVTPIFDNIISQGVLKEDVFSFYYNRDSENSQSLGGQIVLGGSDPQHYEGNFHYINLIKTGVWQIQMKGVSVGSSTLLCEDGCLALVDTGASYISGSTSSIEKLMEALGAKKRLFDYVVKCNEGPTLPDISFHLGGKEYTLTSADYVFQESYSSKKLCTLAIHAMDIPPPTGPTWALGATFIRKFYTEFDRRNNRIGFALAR
Protocol: Compounds of Formula I were evaluated as inhibitors of human renin in an in vitro assay, as follows: This human renin inhibition test has been previously described in detail [Papaioannou, et al., Clinical and Experimental Hypertension, A7(9), 1243-1257 (1985)]. Human renin was obtained from the National Institute for Biological Standards, London. In a total volume of 0.25 mL 100 mM Tris-acetate buffer at pH 7.4, 25×10^-6 Goldblatt units of renin, 0.05 mL of plasma from human volunteers taking oral contraceptives, 6.0 mM sodium EDTA, 2.4 mM phenylmethyl sulfonyl fluoride, 1.5 mM 8-hydroxyquinoline, 0.4 mg/mL BSA, and 0.024 mg/mL neomycin sulfate were incubated for two hours at 37° C. in the presence or absence of renin inhibitors. The produced angiotensin I was determined by radioimmunoassay (New England Nuclear kit). Compounds of Formula I to be assayed were solubilized in either ethyl alcohol or DMSO and diluted with 100 mM Tris-acetate buffer at pH 7.4 to the appropriate concentration. The final concentration of organic solvent in the reaction mixture was less than 1%. Control incubations at 37° C. were used to correct for effects of organic solvent on renin activity.

pepsin = settings: Umezawa et al, J. Antibiot. 23:259-262 (1970); cited from earlier work
cathepsin D = settings: Umezawa et al, J. Antibiot. 23:259-262 (1970); cited from earlier work
renin = settings: Umezawa et al, J. Antibiot. 23:259-262 (1970); cited from earlier work
acid proteases = settings: cited from earlier work
hog renin = settings: after the injection of hog renin into nephrectomized rats; Gross et al, Science, 175, 656 (1971); cited from earlier work
[1] = in vitro, pH 7.4, 37° C., two hours, human plasma

## CC(C)C[C@H](O)[C@H](O)[C@H](CC1CCCCC1)NC(=O)[C@H](C)CNC(=O)[C@H](Cc1ccccc1)OC(=O)N1CCOCC1 [Example 9, O-(N-morpholinocarbonyl)-3-L-phenyllactyl-α-(R)-methyl-β-alaninamide of (2 S, 3R, 4S)-2-amino-1-cyclohexyl-3,4-dihydroxy-6-methylheptane]
Human renin
  relative activity of epimers as human renin inhibitor (in words): much more active as a human renin inhibitor than the other epimer of Example 10
Human renin; [1]
  IC50: 210 nM

## CC(C)CC(=O)N[C@H](C(=O)N[C@H](C(=O)N[C@@H](CC(C)C)[C@@H](O)CC(=O)N[C@@H](C)C(=O)N[C@@H](CC(C)C)[C@@H](O)CC(=O)O)C(C)C)C(C)C [pepstatin] (Isovaleryl-VV[Sta]A[Sta]-OH)
pepsin
  inhibition of pepsin (in words): inhibitor of aspartyl proteases such as pepsin
Cathepsin D
  inhibition of cathepsin D (in words): inhibitor of aspartyl proteases such as pepsin, cathepsin D
renin
  inhibition of renin (in words): inhibitor of aspartyl proteases such as pepsin, cathepsin D and renin
Acid proteases
  inhibition of acid proteases in addition to renin (in words): inhibiting acid proteases in addition to renin
Hog renin
  reduction of blood pressure: reduce blood pressure in vivo

## CC(C)C[C@H](O)[C@H](O)[C@H](CC1CCCCC1)NC(=O)C(C)CNC(=O)[C@H](Cc1ccccc1)OC(=O)N1CCOCC1 (stereo partly drawn) [Example 8, O-(N-morpholinocarbonyl)-3-L-phenyllactyl-D,L-α-methyl-β-alaninamide of (2S, 3R, 4S)-2-amino-1-cyclohexyl-3,4-dihydroxy-6-methylheptane]
Human renin; in vitro
  inhibiting renin (in words): capable of inhibiting renin in vitro
Human renin; [1]
  IC50: 280 nM

## CC(C)C[C@H](O)[C@H](O)[C@H](CC1CCCCC1)NC(=O)[C@@H](C)CNC(=O)[C@H](Cc1ccccc1)OC(=O)N1CCOCC1 [Example 10, O-(N-morpholinocarbonyl)-3-L-phenyllactyl-α-(S)-methyl-β-alaninamide of (2S, 3R, 4S)-2-amino-1-cyclohexyl-3,4-dihydroxy-6-methylheptane]
Human renin; @ 10^-6 M, in vitro, pH 7.4, 37° C., two hours, human plasma
  inhibition at 1 µM: 8%
Human renin
  relative activity of epimers as human renin inhibitor (in words): less active epimer
